Results published in patent publication US10722501B2 (BAYER AKTIENGESELLSCHAFT, priority 2016, dated 2020).

Target: T1, recombinant full-length human prolyl endopeptidase (PREP) (Homo sapiens, UniProt P48147)
T1 construct: To recombinant full-length human prolyl endopeptidase (PREP, R&D-Systems, 4308-SE); purchased R&D-Systems 4308-SE
T1 sequence (P48147 1-710): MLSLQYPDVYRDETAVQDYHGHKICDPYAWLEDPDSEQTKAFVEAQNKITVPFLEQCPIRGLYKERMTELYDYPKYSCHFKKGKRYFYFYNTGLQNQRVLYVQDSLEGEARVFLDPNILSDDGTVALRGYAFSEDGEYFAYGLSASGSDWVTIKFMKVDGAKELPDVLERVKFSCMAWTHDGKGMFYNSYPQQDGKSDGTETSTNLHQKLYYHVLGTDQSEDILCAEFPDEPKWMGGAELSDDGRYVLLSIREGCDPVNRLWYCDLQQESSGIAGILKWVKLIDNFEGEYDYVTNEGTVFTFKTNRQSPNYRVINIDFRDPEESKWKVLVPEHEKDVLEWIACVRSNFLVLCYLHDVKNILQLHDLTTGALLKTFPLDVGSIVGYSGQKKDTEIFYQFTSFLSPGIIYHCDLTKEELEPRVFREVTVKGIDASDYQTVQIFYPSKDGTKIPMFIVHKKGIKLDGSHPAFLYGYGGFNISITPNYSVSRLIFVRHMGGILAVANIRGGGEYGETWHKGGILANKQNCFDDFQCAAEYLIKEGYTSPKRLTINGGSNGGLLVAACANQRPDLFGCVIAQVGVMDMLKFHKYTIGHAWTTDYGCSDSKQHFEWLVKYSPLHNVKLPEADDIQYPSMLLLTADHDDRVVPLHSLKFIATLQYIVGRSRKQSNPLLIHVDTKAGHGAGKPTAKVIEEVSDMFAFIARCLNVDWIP
Assay: Biochemical human prolyl endopeptidase (PREP) assay with fluorescently labelled substrate
Details: substrate Z-Gly-Pro-AMC 50 μM, 32° C., 60 min; some as mean values from multiple independent determinations
In short: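 0.4 nM (final, example) recombinant PREP in pH 7.5 Tris buffer with EDTA, GSH, BSA and Brij-35; compounds at 1 nM to 30 μM. Reaction started with 50 μM Z-Gly-Pro-AMC and followed by fluorescence (ex 360/em 465 nm) at 32° C for 60 min. IC50 interpolated from percent activity based on initial slopes.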

Going from `O=C(C1C(C(F)(F)F)CCc2nn(Cc3ncc(Cl)cc3Cl)c(=O)n21)N1C[C@@H](F)[C@@H](F)C1` (single isomer, unassigned) [Example 288] to `O=C(C1C(C(F)(F)F)CCc2nn(Cc3ncc(Cl)cc3F)c(=O)n21)N1C[C@@H](F)[C@@H](F)C1` (single isomer, unassigned) [Example 292], the IC50 rises from 0.016 µM to 0.037 µM (2.3-fold). The first is the more potent here.

`O=C(C1C(C(F)(F)F)CCc2nn(Cc3ncc(Cl)cc3Cl)c(=O)n21)N1CCC(F)(F)C1` (single isomer, unassigned) [Example 290, (5RS,6RS)-2-[(3,5-Dichloropyridin-2-yl)methyl]-5-[(3,3-difluoropyrrolidin-1-yl)carbonyl]-6-(trifluoromethyl)-5,6,7,8-tetrahydro[1,2,4]triazolo[4,3-a]pyridin-3(2H)-one] and `O=C(C1C(C(F)(F)F)CCc2nn(Cc3ncc(Cl)cc3F)c(=O)n21)N1CCC(F)(F)C1` (single isomer, unassigned) [Example 297, (5RS,6RS)-2-[(5-Chloro-3-fluoropyridin-2-yl)methyl]-5-[(3,3-difluoropyrrolidin-1-yl)carbonyl]-6-(trifluoromethyl)-5,6,7,8-tetrahydro[1,2,4]triazolo[4,3-a]pyridin-3(2H)-one] are within 1.5-fold of each other in IC50: 0.082 µM for the first, 0.115 µM for the second.

`O=C(C1C(C(F)(F)F)CCc2nn(Cc3ncc(Cl)cc3F)c(=O)n21)N1C[C@@H](F)[C@@H](F)C1` (single isomer, unassigned) [Example 293] and `O=C(C1C(C(F)(F)F)CCc2nn(Cc3ncc(Cl)cc3F)c(=O)n21)N1CC(F)C1` (single isomer, unassigned) [Example 309, (5RS,6RS)-2-[(5-Chloro-3-fluoropyridin-2-yl)methyl]-5-[(3-fluoroazetidin-1-yl)carbonyl]-6-(trifluoromethyl)-5,6,7,8-tetrahydro[1,2,4]triazolo[4,3-a]pyridin-3(2H)-one] are within 1.5-fold of each other in IC50: 0.085 µM for the first, 0.064 µM for the second.

Going from `O=C(C1C(C(F)(F)F)CCc2nn(Cc3ncc(Cl)cc3F)c(=O)n21)N1CC[C@H](F)C1` (single isomer, unassigned) [Example 295] to `O=C(C1C(C(F)(F)F)CCc2nn(Cc3ccc(Cl)cn3)c(=O)n21)N1CC[C@H](F)C1` (single isomer, unassigned) [Example 299], the IC50 falls from 0.012 µM to 0.0035 µM (3.4-fold).

Going from `O=C(C1C(C(F)(F)F)CCc2nn(Cc3ccc(Cl)cn3)c(=O)n21)N1C[C@@H](F)[C@@H](F)C1` (single isomer, unassigned) [Example 301] to `O=C(C1C(C(F)(F)F)CCc2nn(Cc3ccc(Cl)cn3)c(=O)n21)N1CC(F)C1` (single isomer, unassigned) [Example 311, (5RS,6RS)-2-[(5-Chloropyridin-2-yl)methyl]-5-[(3-fluoroazetidin-1-yl)carbonyl]-6-(trifluoromethyl)-5,6,7,8-tetrahydro[1,2,4]triazolo[4,3-a]pyridin-3(2H)-one], the IC50 rises from 0.0195 µM to 0.03 µM (1.5-fold). The first is the more potent here.

Going from `O=C(C1C(C(F)(F)F)CCc2nn(Cc3ccnc(C(F)(F)F)c3F)c(=O)n21)N1CC(F)C1` (single isomer, unassigned) [Example 303, (5RS,6RS)-5-[(3-Fluoroazetidin-1-yl)carbonyl]-2-{[3-fluoro-2-(trifluoromethyl)pyridin-4-yl]methyl}-6-(trifluoromethyl)-5,6,7,8-tetrahydro[1,2,4]triazolo[4,3-a]pyridin-3(2H)-one] to `O=C(C1C(C(F)(F)F)CCc2nn(Cc3ccc(C(F)(F)F)nc3)c(=O)n21)N1CC(F)C1` (single isomer, unassigned) [Example 305, (5RS,6RS)-5-[(3-Fluoroazetidin-1-yl)carbonyl]-6-(trifluoromethyl)-2-{[6-(trifluoromethyl)pyridin-3-yl]methyl}-5,6,7,8-tetrahydro[1,2,4]triazolo[4,3-a]pyridin-3(2H)-one], the IC50 falls from 0.035 µM to 0.014 µM (2.5-fold).

First: O=C(C1C(C(F)(F)F)CCc2nn(Cc3ncc(Cl)cc3Cl)c(=O)n21)N1CC(F)C1 (single isomer, unassigned) [Example 307, (5RS,6RS)-2-[(3,5-Dichloropyridin-2-yl)methyl]-5-[(3-fluoroazetidin-1-yl)carbonyl]-6-(trifluoromethyl)-5,6,7,8-tetrahydro[1,2,4]triazolo[4,3-a]pyridin-3(2H)-one]
Second: O=C(C1CC(C(F)(F)F)Cc2nn(Cc3ncc(F)cc3Cl)c(=O)n21)N1CC[C@H](F)C1 (single isomer, unassigned) [Example 572]
The IC50 of the first is 70-fold higher: 0.0985 µM for the first, 0.0014 µM for the second. The second is the more potent here.

Compared with `O=C(C1CC(C(F)(F)F)Cc2nn(Cc3ccc(C(F)(F)F)nc3)c(=O)n21)N1CCC(F)(F)C1` (single isomer, unassigned) [Example 313, (5RS,7RS)-5-[(3,3-Difluoropyrrolidin-1-yl)carbonyl]-7-(trifluoromethyl)-2-{[6-(trifluoromethyl)pyridin-3-yl]methyl}-5,6,7,8-tetrahydro[1,2,4]triazolo[4,3-a]pyridin-3(2H)-one], `O=C(C1CC(C(F)(F)F)Cc2nn(Cc3ccc(C(F)(F)F)nc3)c(=O)n21)N1CC(F)C(F)C1` (single isomer, unassigned) [Example 583] is 240-fold higher in IC50: 0.004 µM for the first, 0.97 µM for the second. The first is the more potent here.

First: O=C(C1CC(C(F)(F)F)Cc2nn(Cc3ccc(Cl)cn3)c(=O)n21)N1CC[C@H](F)C1 (single isomer, unassigned) [Example 315]
Second: O=C(C1CC(C(F)(F)F)Cc2nn(Cc3ccc(Cl)cn3)c(=O)n21)N1CCC(F)(F)C1 (single isomer, unassigned) [Example 567, (5RS,7RS)-2-[(5-Chloropyridin-2-yl)methyl]-5-[(3,3-difluoropyrrolidin-1-yl)carbonyl]-7-(trifluoromethyl)-5,6,7,8-tetrahydro[1,2,4]triazolo[4,3-a]pyridin-3(2H)-one]
The IC50 of the first is 1.9-fold lower: 0.0014 µM for the first, 0.0027 µM for the second. The first is the more potent here.

`O=C(C1CC(C(F)(F)F)Cc2nn(Cc3cncc(Cl)c3)c(=O)n21)N1CC[C@H](F)C1` (single isomer, unassigned) [Example 317] and `O=C(C1CC(C(F)(F)F)Cc2nn(Cc3ncc(F)cc3F)c(=O)n21)N1CC[C@H](F)C1` (single isomer, unassigned) [Example 570] are within 1.5-fold of each other in IC50: 0.00041 µM for the first, 0.00057 µM for the second.

Going from `O=C(C1CC(C(F)(F)F)Cc2nn(Cc3cncc(Cl)c3)c(=O)n21)N1CC[C@H](F)C1` (single isomer, unassigned) [Example 318] to `O=C(C1CC(C(F)(F)F)Cc2nn(Cc3ncc(C(F)(F)F)cc3Cl)c(=O)n21)N1CC[C@H](F)C1` (single isomer, unassigned) [Example 563], the IC50 falls from 0.518 µM to 0.00033 µM (1600-fold). The second is the more potent here.

First: CC1Cc2nn(Cc3ccc(C(F)(F)F)nc3)c(=O)n2C(C(=O)N2C[C@@H](F)[C@@H](F)C2)C1 (single isomer, unassigned) [Example 337]
Second: O=C([C@@H]1CCCc2nn(Cc3ccc(C(F)(F)F)nc3)c(=O)n21)N1CC(F)C(F)C1 (single isomer, unassigned) [Example 553]
The IC50 of the first is 77-fold lower: 0.0075 µM for the first, 0.575 µM for the second. The first is the more potent here.

Going from `CC1Cc2nn(Cc3ccc(C(F)(F)F)nc3)c(=O)n2C(C(=O)N2C[C@@H](F)[C@@H](F)C2)C1` (single isomer, unassigned) [Example 338] to `O=C([C@@H]1CCCc2nn(Cc3ccc(C(F)(F)F)nc3)c(=O)n21)N1CC(F)C(F)C1` (single isomer, unassigned) [Example 554], the IC50 rises from 0.0015 µM to 0.01 µM (6.7-fold).

Going from `O=C([C@@H]1CCCc2nn(Cc3ccc(Cl)nc3)c(=O)n21)N1CC(F)C(F)C1` (single isomer, unassigned) [Example 551] to `O=C(C1CC(C(F)(F)F)Cc2nn(Cc3ncc(F)cc3Cl)c(=O)n21)N1CCC(F)(F)C1` (single isomer, unassigned) [Example 576, (5RS,7RS)-2-[(3-Chloro-5-fluoropyridin-2-yl)methyl]-5-[(3,3-difluoropyrrolidin-1-yl)carbonyl]-7-(trifluoromethyl)-5,6,7,8-tetrahydro[1,2,4]triazolo[4,3-a]pyridin-3(2H)-one], the IC50 falls from 0.48 µM to 0.0087 µM (55-fold). The second is the more potent here.

First: O=C([C@@H]1CCCc2nn(Cc3ccc(Cl)nc3)c(=O)n21)N1CC(F)C(F)C1 (single isomer, unassigned) [Example 552]
Second: O=C(C1CC(C(F)(F)F)Cc2nn(Cc3ncc(C(F)(F)F)cc3Cl)c(=O)n21)N1CCC(F)(F)C1 (single isomer, unassigned) [Example 565, (5RS,7RS)-2-{[3-Chloro-5-(trifluoromethyl)pyridin-2-yl]methyl}-5-[(3,3-difluoropyrrolidin-1-yl)carbonyl]-7-(trifluoromethyl)-5,6,7,8-tetrahydro[1,2,4]triazolo[4,3-a]pyridin-3(2H)-one]
The IC50 of the first is 4.3-fold higher: 0.0064 µM for the first, 0.0015 µM for the second.

`O=C(C1CC(C(F)(F)F)Cc2nn(Cc3ncc(F)cc3F)c(=O)n21)N1CCC(F)(F)C1` (single isomer, unassigned) [Example 574, (5RS,7RS)-2-[(3,5-Difluoropyridin-2-yl)methyl]-5-[(3,3-difluoropyrrolidin-1-yl)carbonyl]-7-(trifluoromethyl)-5,6,7,8-tetrahydro[1,2,4]triazolo[4,3-a]pyridin-3(2H)-one] gave an IC50 of 0.0052 µM.
